# How the values were obtained:
# Foxa-2 expression [1] = test: Foxa-2 expression in primary adipocytes from lean wildtype C57B6 mice, semiquantitative RT-PCR; assay type: cell-based; conditions: insulin 100 nM, 60 hours
# Protocol: Total RNA was extracted from cells and EBs using Trizol following manufacturer's instructions (Life Technologies, Inc.). […] The cDNAs provided templates for polymerase chain reactions (PCRs) using specific primers at annealing temperatures ranging between 60 and 65° C. in the presence of dNTPs, [α^-32P]dCTP, and Taq DNA polymerase. […] Primary adipocytes were isolated as described by Rodbell (1964) J. Biol. Chem. 239:375-380. […] (1995) J. Cell. Biochem. 58:435-463. The reaction was stopped by spinning through dinonyl […] oil and the radioactivity quantified by scintillation counting. […] (1995) Am. J. Physiol. 268:[…]-[…]. Fatty acid de novo synthesis was analyzed by saponification of total lipids as described by […] et al. (1978) J. […] Incorporation into lipid glycerol was calculated by subtracting fatty acid radioactive label from total lipid radioactive label. Primary adipocytes were isolated from lean wildtype C57B6 mice and cultured in MEM medium (control) or in the presence of insulin (100 nM; 24 hours and 60 hours, respectively) or rosiglitazone (50 μM), WY14,643 (100 μM), dexametason (1 μM), leptin (100 ng/ml), TNF-α (5 ng/ml), adiponectin (500 ng/ml) and glucagons (100 nM) for 60 hours. Gene expression was measured by semiquantitative RT-PCR. Steady state mRNA levels of Hprt were used as a control and indicate that each lane contains similar amounts of mRNA. Reactions were also assayed in the absence of reverse transcriptase, showing that mRNA was not contaminated with genomic DNA.
# Foxa-2 expression [2] = test: Foxa-2 gene expression in stromal vascular cells (preadipocytes) of lean and obese mice; assay type: cell-based; conditions: 100 nM insulin, 24 and 60 hours
# Protocol: Gene expression was analyzed in a vasculo-stromal fraction (containing preadipocytes) of wildtype and ob/ob mice that were cultured in the absence (−) or presence of 100 nM insulin for 24 and 60 hours.
# Stromal vascular cells from ob/ob mice are known to have increased cell replication in vitro and accumulate little triglycerides when cultured in differentiation medium containing insulin compared to lean control animals (Black et al (1995) J. Cell. Biochem 58:455-463). […] To test if the resistance to differentiation of obese preadipocytes may be mediated by Foxa-2, stromal vascular cells of lean and obese mice were isolated. cultured in the presence or absence of insulin, and gene expression of Foxa-2 and Pref-1 was measured. The mPNA levels were markedly higher in stromal vascular cells of ob/ob mice compared to lean littennates. […] However, Foxa-2 induction in ob/ob preadipocytes was profoundly higher compared to wildtype cells. Furthermore, Foxa-2 expression correlated with induction of Pref-1 gene expression.
# [3] = system: Pref-1, Hk-2, m2Pk, Glut-4 and Ucp-2/3; test: Expression of putative Foxa-2 target genes in primary adipocytes cultured with insulin; assay type: cell-based, mice; conditions: 100 nM insulin for 60 hours vs untreated adipocytes
# Fxr = Fxr expression in primary adipocytes of lean mice cultured with insulin; assay type: cell-based; conditions: insulin 50 nM, 60 hours
# Shp = Shp expression in primary adipocytes of lean mice cultured with insulin; assay type: cell-based; conditions: insulin 50 nM, 60 hours
# Foxa-2 activity = test: Transactivation assay, HepG2 cells transfected with Foxa-2 and pPepck-Luc or p6xCdx-TkLuc; assay type: cell-based, rat; conditions: insulin 100 nM for the duration of transfection
# Protocol: Transfections and Transactivation assay. HepG2 cells were grown to 60-70% confluence in a 24-well dish and transfected with 50 ng of each reporter gene (p6xCdx-TkLuc or pPEPCK-Luc), pCMV-β-Gal as internal reference and the expression vectors for wildtype or mutant Foxa-1 and Foxa-2 and human Akt1/Akt2 using the transfection reagent Fugene6 (Roche). Cells were grown for 48 hours and luciferase activity was measured using the Luciferase Detection System (Promega). Luciferase was normalized for transfection efficiency by β-galactosidase activity.
# To analyze whether Foxa-2 activity is regulated by insulin, HepG2 cells were transfected with a Foxa-2 expression vector and either plasmid pPepck-Luc or p6xCdx-TkLuc that contain a 621 bp promoter framnent of the human PEPCK gene or six Foxa-2 binding sites of the Cdx-2 gene upstream of a minimal promoter and the luciferase gene, respectively.
# Foxa-2 = test: Immunofluorescence of subcellular distribution of endogenous Foxa-2 in HepG2 cells; assay type: cell-based; conditions: insulin 50 nM
# Protocol: Immunofluorescence microscopy. Cells were fixed for 30 minutes at room temperature with 2% paraformaldehyde. For immunofluorescent detection of Foxa-1 or Foxa-2, fixed cells were incubated with respective polyclonal antibodies (1:100) (Ruiz i Altaba et al. (1993) Mech. Dev. 44: 91-108) overnight at 4° C. After washing, the cells were treated with anti rabbit IgG secondary antibody linked to Alexa Fluor 488 (Molecular Probes). Immunofluorescent staining was visualized using laser-scanning micrsocopy. To determine whether Akt-induced phosporylation of Foxa-2 has an effect on the subcellular distribution of this transcription factor, the following experiment was performed. HepG2 cells were grown to 60% confluency and endogenous Foxa-1 and Foxa-2 proteins were visualized by immunofluorescence after staining with anti Foxa-1 and Foxa-2 antibodies. Cells were either examined in the absence or presence of insulin (50 nM) and/or Ly294002 or PD98059, and after transfection with either Akt1 or Akt2 expression vectors (FIG. 5B). […] Treatment of cells with MAPKK1 inhibitor PD98059 had no effect on insulin stimulated nuclear exclusion of Foxa-2. The subcellular distribution of Foxa-2 in cells that were stimulated with insulin and expressed a dominant negative form of Akt (Akt[…]) were resistant to nuclear exclusion. […]
substance,measurement,setting,value
insulin: Insulin was from Sigma; hormone used as stimulus,Foxa-2 expression,Foxa-2 expression [1],strong induction
same,expression of Foxa-2,Foxa-2 expression [2],markedly increased
same,"expression of Pref-1, Hk-2, m2Pk, Glut-4 and Ucp-2/3",[3],upregulation
same,Fxr expression,Fxr,induced
same,Expression of Shp,Shp,induced
same,Foxa-2 activity (luciferase reporter),Foxa-2 activity,significantly decreased
same,subcellular localization of endogenous Foxa-2,Foxa-2,efficiently excluded from the nucleus

# Source: patent publication US20070166710A1, “Methods for inhibiting adipogenesis and for treating type 2 diabetes” (priority 2003, published 2007)
